Patent US12583888B2, “Bi-specific extracellular matrix binding peptides and methods of use thereof” (University of Tartu, priority 2019, dated 2026)
Where “and” joins values, the source holds several entries; their conditions need not be identical. Identical values can stand only once. No end group written: not given here.

Experiments:
TNC-C = target: T1, TNC-C (Homo sapiens, UniProt P24821); assay: Individual peptide-phage binding to TNC-C; conditions: individual peptide phages
T1 construct: made in house; host or cells: E. coli BL21 Rosetta 2 (DE3) pLysS
T1 sequence (P24821 with tags, fused parts or gaps): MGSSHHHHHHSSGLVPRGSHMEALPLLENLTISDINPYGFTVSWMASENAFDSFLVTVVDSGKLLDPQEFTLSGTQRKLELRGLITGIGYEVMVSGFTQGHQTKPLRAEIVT

P13 tumor = conditions: i.v. equimolar mix, 2 h circulation
Description: (§1) In vivo play-off was used to evaluate systemic homing of peptide phage to xenograft tumor models. The in vitro selected candidate TNC-C binding peptides, phages displaying published tumor homing peptides, and control peptides were amplified and purified by precipitation with PEG-8000 (Sigma-Aldrich, St. Louis, MO, USA), followed by CsCl2 gradient ultracentrifugation and dialysis. The amplified phage peptides were pooled in equimolar quantities, and injected intravenously (final 1×10^10 pfu in 200 μl PBS) in tumor-bearing mice for two hour circulation, after which mice were anesthetized with 2.5% avertin and intracardially perfused with DMEM intracardially. The tumors and organs were collected in lysogeny broth (LB)+1% NP40, and the tissues were homogenized using a hand-held homogenizer for phage peptide rescue. Phages in the tissue lysates were amplified in E. coli, purified by precipitation with PEG-8000 and DNA was extracted using a DNA extraction kit (High Pure PCR Template Preparation Kit; Roche, Basel, Switzerland). Next-generation sequencing of phage genomic DNA evaluated the representation of each phage in input mixture, in tumor and control organs with Ion Torrent system (Thermo Fisher Scientific, Waltham, MA, USA). The next generation deep sequencing of phage library was done using Ion Torrent according to the manufacturer's protocol with slight modification. The FASTQ data from Ion Torrent was processed by a custom python script that identified the barcodes, constant flanking residues, and extracted the reads of the correct length.

P3 stem cell-like tumor = conditions: i.v. equimolar mix, 2 h circulation
Description: as §1

[1] = tested on: PC3 prostate carcinoma xenografts; conditions: i.v. equimolar mix, 2 h circulation
Description: as §1

U87-MG glioblastoma = conditions: i.v. equimolar mix, 2 h circulation
Description: as §1

WT-GBM tumor = conditions: i.v. equimolar mix, 2 h circulation
Description: as §1

normal brain = conditions: i.v. equimolar mix, 2 h circulation
Description: as §1

[2] = Zeta potential and size of iron oxide nanoworms by DLS; type: physicochemical; conditions: n = 3
Procedure: The concentration of the NWs was determined by constructing a calibration curve with iron oxide and measuring the absorbance of NWs at 400 nm with a NanoDrop 2000c spectrophotometer (Thermo Scientific). The concentration measurements were confirmed by ICP-MS. Transmission electron microscopy (TEM, Tecnai 10, Philips, Netherlands) was used to image the nanoparticles. Dynamic Light Scattering (DLS; Zetasizer Nano ZS, Malvern Instruments, UK) was used to assess the zeta potential, polydispersity and size of NWs.

[3] = tested on: orthotopic NCH421K glioblastoma xenografts; assay: Systemic NW tumor homing, FAM signal by confocal microscopy; type: in vivo, mice; conditions: NCH421K tumors, 7.5 mg/kg i.v., 5 h
Procedure: For NW biodistribution studies, NWs (7.5 mg/kg) in PBS were injected into the tail vein of the tumor-bearing mice, followed by cardiac perfusion with 20 ml PBS/DMEM before collection tumor and control organs for imaging. In control experiments, NW injection was preceded by systemic pre-injection of blocking FN-EDB and/or TNC-C antibodies (30 μg/mouse) 15 min prior to injection of the NWs.
Snap-frozen 10 μm tumor cryosections were mounted on Superfrost™^+ slides. The sections were equilibrated at RT and fixed with 4% paraformaldehyde/methanol and permeabilized with PBST (PBS+0.05% Tween 20), blocked with PBST, 5% BSA, 5% goat serum (GE Healthcare, Little Chalfont, UK) at RT for 30 min, followed by primary antibody incubation at RT for 1 h. […] The coverslips were mounted on glass slides with Fluoromount-G (Electron Microscopy Sciences, PA, USA), imaged using confocal microscopy (Olympus FV1200MPE, Tokyo, Japan) and analyzed using the FV10-ASW4.2 viewer, Imaris software and ImageJ freeware.

[4] = tested on: orthotopic WT-GBM glioblastoma; assay: as above; type: in vivo, mice; conditions: WT tumors, 7.5 mg/kg i.v., 5 h
Procedure: (§2) FAM-labeled PL2 peptide coupled NW or control FAM-NW (7.5 mg/kg) in PBS were injected into the tail vein of the subcutaneous U87, PC3, and orthotropic WT-GBM tumor mice. Five h after circulation, the tumor and organs were collected by cardiac perfusion of mice with 20 ml PBS/DMEM under deep anesthesia. Tissues were imaged under an Illuminatool Bright Light System LT-9900 (Lightools Research, Encinitas, CA, USA) before Snap-frozen. The frozen tissues were cryosectioned 8-10 μm and mounted on a superfrost+ slides. The sections were equilibrated at RT and fixed with 4% paraformaldehyde/methanol. The immunostaining performed with following primary antibodies; rabbit anti-fluorescein IgG fragment (cat. no. A889, Thermo Fisher Scientific, MA, USA), rat anti-mouse CD31 (BD Biosciences, CA, USA), and in-house prepared CF647 or CF546-labeled single chain antibodies ScFV G11, for secondary antibodies; Alexa 488 goat anti-rabbit IgG, Alexa 647 goat anti-rat IgG, and Alexa 546 goat anti-mouse IgG, were from Invitrogen, CA, USA. Nuclei were counterstained with 4′,6-diamidino-2-phenylindole (DAPI, Molecular Probes) at one 1 μg/ml. The coverslips were mounted onto glass slides with Fluoromount-G (Electron Microscopy Sciences, PA, USA) imaged using confocal microscopy (Olympus FV1200MPE, Hamburg, Germany), and analyzed using the FV10-ASW4.2 viewer/Imaris software/Fiji ImageJ.

[5] = tested on: PC3 prostate carcinoma xenografts; assay: as above; type: in vivo, mice; conditions: PC3 tumors, 7.5 mg/kg i.v., 5 h
Procedure: as §2

orthotopic NCH421K GBM = assay: Magnetic resonance imaging of NW-injected mice; type: in vivo
Procedure: For MRI, nude mice bearing orthotopic NCH421k GBM were i.v. injected with iron oxide nanoworms at 5 mg/kg. Five hours after NW injection, the mice were anesthetized with isoflurane and subjected to MRI using a 9.4 Tesla BioSpec 94/21 (Bruker BioSpin MRI GmbH, Ettlingen, Germany) equipped with ParaVision Acquisition 6.0.1 software (Bruker, Ettlingen, Germany). Following intravital MRI, the animals were perfused with PBS to remove blood and background circulating NWs and subjected to postmortem MRI. After imaging, tumors and control tissues were harvested and sectioned for immunofluorescence staining. Mice received isoflurane in oxygen mix (1.5%, flow rate of 200 ml/min) for anesthesia; the body temperature and breathing rate were monitored throughout the experiments. T2* map MGE (Multiple Gradient Echo) sequences were acquired in sagittal and coronal orientations. The following parameters were used during the data acquisition: slice thickness −0.375 mm (3 slices averaged offline for improved signal/noise ratio); inter-slice gap −0.375 mm; repetition time −800; Echo time ˜3.5-38.5 ms; flip angle ˜50°; axial slices ˜128, pixel bandwidth ˜292.9; imaging frequency ˜400.3; matrix ˜256×256, and magnetic field strength ˜9.4. To calculate T2 relaxation times, regions of interest (ROIs) were drawn manually on the images by using image sequence analysis (ISA) tool package (Paravision 5, Bruker) using T2vtr fit function y=A+C*exp (−t/T2) (A=Absolute bias, C=signal intensity, T2=spin-spin relaxation time) for T2 evaluation. To calculate mean signal intensity in the tumor to a reference region, ROIs were drawn manually on the images at given echo time (TE). Experiments were repeated in triplicate.

s.c. U87MG tumors = assay: Experimental tumor therapy; type: in vivo, mice
Procedure: U87MG cells (4×10^6) in 100 μl PBS were implanted subcutaneously into the right flank of 11-15 week old male nude mice. The weight of animals and tumor volume [length×(width×width)/2] was recorded on every other day until tumor volume reached −100 mm^3. Animals were randomized into 4 groups (PBS, FAM-D[KLAKLAK]2-NWs, FAM-PL1-NWs, and FAM-PL1-D[KLAKLAK]2-NWs; 8 mice/group). 100 μl of NWs (at 5 mg/kg body weight of iron) or PBS was intravenously injected into the tail vein every other day for ten injections. Tumor size, body weight, survival, and behavior were recorded during treatment and post-therapy. When the tumor volume reached 2000 mm^3 (or >10% body weight), the mice were sacrificed, and organs and tumors were excised, macroscopically observed and snap frozen. Tumor volume, Kaplan-Meier survival and body weight curves were calculated using the GraphPad Prism 6 software with p-values <0.05 considered significant. For experimental therapy on intracranially-implanted NCH421k GBM, 32 tumor mice were randomized into 4 groups 3 days after the tumor implantation. […] Tumor size, body weight, survival, and behavior were recorded during and post-treatment. Kaplan-Meier survival and body weight curves were calculated using GraphPad Prism 6 and P values <0.05 were considered significant.

[6] = tested on: intracranially-implanted NCH421k GBM; assay: Experimental tumor therapy; type: in vivo, mice; parameters: percent of the surviving mice: concentration or dose not given beside the values
Procedure: U87MG cells (4×10^6) in 100 μl PBS were implanted subcutaneously into the right flank of 11-15 week old male nude mice. The weight of animals and tumor volume [length×(width×width)/2] was recorded on every other day until tumor volume reached −100 mm^3. Animals were randomized into 4 groups (PBS, FAM-D[KLAKLAK]2-NWs, FAM-PL1-NWs, and FAM-PL1-D[KLAKLAK]2-NWs; 8 mice/group). 100 μl of NWs (at 5 mg/kg body weight of iron) or PBS was intravenously injected into the tail vein every other day for ten injections. Tumor size, body weight, survival, and behavior were recorded during treatment and post-therapy. When the tumor volume reached 2000 mm^3 (or >10% body weight), the mice were sacrificed, and organs and tumors were excised, macroscopically observed and snap frozen. Tumor volume, Kaplan-Meier survival and body weight curves were calculated using the GraphPad Prism 6 software with p-values <0.05 considered significant. For experimental therapy on intracranially-implanted NCH421k GBM, 32 tumor mice were randomized into 4 groups 3 days after the tumor implantation. 100 μl of the PBS or PBS containing FAM-D[KLAKLAK]2-NWs, FAM-PL1-NWs and FAM-PL1-D[KLAKLAK]2-NWs (5 mg/kg body weight of iron; SEQ ID NO:6) were injected i.v. every other day for 10 total injections. Tumor size, body weight, survival, and behavior were recorded during and post-treatment. Kaplan-Meier survival and body weight curves were calculated using GraphPad Prism 6 and P values <0.05 were considered significant.

clinical GBM samples = assay: NW overlay assay on clinical GBM cryosections; parameters: species or system human; conditions: confocal imaging
Procedure: Fresh surgical GBMs ([…]) were snap-frozen in liquid nitrogen, cryosectioned at 8 μm, fixed with methanol, and permeabilized with TBS followed by blocking buffer containing 5% BSA, 5% goat serum and 5% FBS in TBS. For overlay, the sections were incubated with […] of PL1-NW or NW at 4° C. overnight. The sections were washed and blocked with blocking buffer, followed by immunostaining using rabbit anti-fluorescein primary antibodies and detection with the Alexa-488 anti-rabbit secondary antibody. FN-EDB and TNC-C were detected by fluorescently labeled single-chain antibodies ScFV L19 FN-EDB-CF647 and ScFV G11 TNC-C-CF555.

[7] = tested on: Ad-VEGF-A164-induced angiogenic vessels; conditions: adenovirus-injected ear, 7.5 mg/kg i.v., 24 h
Procedure: Angiogenesis was induced by injecting 2.5×10^8 PFU of an adenoviral vector driving expression of mouse VEGF^164 (Ad-VEGF^164) intradermally into the left ear of 7-8 week-old female nude mice (Nagy et al., Methods Enzymol. 444:43-64 (2008)). The right ear served as a control. PL1-NW or NW (at 7.5 mg/kg) were i.v. injected 4 days after induction of angiogenesis and 24 h before intravital imaging. Texas Red/Evans Blue was i.v. injected at 30 mg/kg to allow visualization of blood vessels. The ear was fixed on the coverslip for imaging using a veterinary-grade glue tape, and a mold was prepared around the ear from agarose for imaging. The body temperature was maintained throughout the experiment with a heat mat. Images and videos were acquired at an excitation wavelength of 920 nm, optical sections were taken under identical conditions, and experiments were repeated in triplicates.

[8] = tested on: s.c. U87MG glioblastoma xenografts; assay: Systemic NW tumor homing, FAM signal by confocal microscopy; conditions: U87MG tumors, 7.5 mg/kg i.v., 5 h
Procedure: as §2

AVRGRLRVAKLAAALE
TNC-C binding (fold G7 control phage) (TNC-C): 5333 fold and 7111 fold
Representation of phage in tumors (fold G7 control phage), P13 (P13 tumor): 0.6 fold
Representation of phage in tumors (fold G7 control phage), P3 SCL (P3 stem cell-like tumor): 0.6 fold
Representation of phage in tumors (fold G7 control phage), PC3 [1]: 1.0 fold
Representation of phage in tumors (fold G7 control phage), U87-MG (U87-MG glioblastoma): 0.8 fold
Representation of phage in tumors (fold G7 control phage), WT-GBM (WT-GBM tumor): 1.3 fold
Representation of phage in control brain tissue (fold G7 control phage), Norm. brain (normal brain): 0.1 fold

PL1-NW: iron oxide nanoworms coated with FAM-labeled PL1 peptide (CPPRRGLIKLKTS; not fully specified (residue 1); also: FAM label)
Zeta Potential [2]: −10.3 ± 0.7 mV
increase in NW accumulation compared to non-targeted NWs [3]: 8.8 fold
increase in NW accumulation compared to non-targeted NWs [4]: 3.3 fold
increase in NW accumulation compared to non-targeted NWs [5]: 4.7 fold
decrease of T2* relaxation time within the tumor (orthotopic NCH421K GBM; 5 mg/kg iron i.v.): 27-36%
T2* relaxation time within the tumor (orthotopic NCH421K GBM; after NW injection, first value (post-scan, 5 h)): 17 ± 1 ms
T2* relaxation time within the tumor (orthotopic NCH421K GBM; after NW injection, second value (perfused)): 14 ± 4 ms
T2* relaxation time within the tumor (orthotopic NCH421K GBM; before NW injection (pre-scan)): about 23±2 ms
Median survival (s.c. U87MG tumors; U87MG, Kaplan-Meier): 39 days
percent of the surviving mice (s.c. U87MG tumors; U87MG, day 0): 100%
percent of the surviving mice (s.c. U87MG tumors; U87MG, day 29): 88%
percent of the surviving mice (s.c. U87MG tumors; U87MG, day 31): 75%
percent of the surviving mice (s.c. U87MG tumors; U87MG, day 33): 75%
percent of the surviving mice (s.c. U87MG tumors; U87MG, day 35): 63%
percent of the surviving mice (s.c. U87MG tumors; U87MG, day 37): 63%
percent of the surviving mice (s.c. U87MG tumors; U87MG, day 39): 38%
percent of the surviving mice (s.c. U87MG tumors; U87MG, day 41): 25%
percent of the surviving mice (s.c. U87MG tumors; U87MG, day 43): 25%
percent of the surviving mice (s.c. U87MG tumors; U87MG, day 45): 13%
percent of the surviving mice (s.c. U87MG tumors; U87MG, day 49): 13%
percent of the surviving mice (s.c. U87MG tumors; U87MG, day 57): 0%
tumor growth (s.c. U87MG tumors; s.c. U87MG, i.v. every other day, 10 injections, 5 mg/kg iron): only a slight reduction in tumor growth
Median survival ([6]; Kaplan-Meier): 42 days
percent of the surviving mice ([6]; day 0): 100%
percent of the surviving mice ([6]; day 32): 100%
percent of the surviving mice ([6]; day 37): 75%
percent of the surviving mice ([6]; day 38): 62.5%
percent of the surviving mice ([6]; day 39): 62.5%
percent of the surviving mice ([6]; day 40): 62.5%
percent of the surviving mice ([6]; day 41): 62.5%
percent of the surviving mice ([6]; day 42): 37.5%
percent of the surviving mice ([6]; day 43): 25%
percent of the surviving mice ([6]; day 44): 0%
binding to clinical GBM cryosections (clinical GBM samples): showed binding to all human GBM samples tested
increase in accumulation in angiogenic vessels relative to nontargeted NWs [7]: ~3 fold
increase in NW accumulation compared to non-targeted NWs [8]: 5 fold
